The subject of assay [1] is Normal human HFL-1 cells. Description: Cytoprotection assay against paclitaxel. Type of assay: cell-based. More on the design: key: +: A compound was deemed to be active if the number of viable cells following the combination treatment was higher than the number of cells after treatment with paclitaxel alone. Particulars: 2.0 or 10 μM sulfone, paclitaxel 250 nM at time zero or 24 hours later, viable cells after 96 hours of paclitaxel. How it is done:
The cytoprotective activity of the same Istyryl benzylsulfones was determined as follows. Normal human HFL-1 cells were plated at a cell density of 1.0×10^5 cells per well in six culture plates. Styryl benzylsulfone was added 24 hours later at a final concentration of either 2.0 or 10 μM. The time of styryl sulfone addition was designated as time zero. Paclitaxel (250 nM) was added at either time zero, or 24 hours after time zero. The total number of viable cells was determined, as described above, after 96 hours of paclitaxel treatment. A compound was deemed to be active if the number of viable cells following the combination treatment was higher than the number of cells after treatment with paclitaxel alone.

For assay [2], the system named is HFL-1 cells. The experiment in a line: Long term exposure of normal human fibroblasts, cell count. Type of assay: cell-based. Particulars: 2.5 or 5.0 μM for 48 or 72 hours, counted 96 hours after the incubation period. How it is done:
Cells were exposed to either 2.5 or 5.0 μM of the styryl sulfone […] and counted.
HFL-1 cells were plated at a cell density of 1.0×10^5 per well 24 hours prior to drug addition. Cells were exposed to either 2.5 or 5.0 μM (E)-4-fluorostyryl-4-chlorobenzylsulfone for 48 or 72 hours. Cells were counted 96 hours after the incubation period.

Assay [3] concerns HFL-1 cells. Description: Protection of normal human fibroblasts from paclitaxel cytotoxicity. It counts as cell-based. The conditions noted are these: HFL-1 cells pretreated with 2.0 μM for 8 hours, then paclitaxel (250 μM); viable cells 96 hours after paclitaxel. The method, then:
FIG. 3 is a graph of the effect of paclitaxel on HFL-1 cells which were either pre-treated with (E)-4-fluorostyryl-4-chlorobenzylsulfone and then exposed to paclitaxel, or treated simultaneously with both agents. Cells were enumerated 96 hours after exposure to paclitaxel.
HFL-1 cells were plated at a cell density of 1.0×10^5 per well 24 hours prior to drug addition. Cells were pretreated with (E)-4-fluorostyryl-4-chlorobenzylsulfone (2.0 μM) for 8 hours and then exposed to paclitaxel (250 μM). Other cells were treated with paclitaxel alone, or both agents simultaneously. Cells were enumerated by Trypan blue exclusion using a hematocytometer 96 hours after exposure to paclitaxel. The ordinate in FIG. 3 represents the number of viable cells following treatment with (E)-4-fluorostyryl-4-chlorobenzylsulfone and paclitaxel, divided by the number of viable cells remaining after treatment with paclitaxel alone.

Assay [4] concerns HFL-1 cells. The experiment in a line: Protection of normal human fibroblasts from anticancer agent cytotoxicity (Protection Ratio). Type of assay: cell-based. The conditions noted are these: 2.0 μM sulfone 24 hour preincubation, then cisplatin 5.0 μM; viable cells at 96 hours. How it is done:
HFL-1 cells were plated at a cell density of 1.0×10^5 in 1 ml of medium. Twenty-four hours following plating, 2.0 μM of (E)-4-fluorostyryl-4-chlorobenzylsulfone was added to the medium. Following a 24 hour preincubation with the styryl sulfone, the various cytotoxic agents listed in Table 6 were added to the cells, at the concentrations given in Table 6. the number of viable cells was determined by Trypan blue exclusion using a hematocytometer 96 hours after exposure to cytotoxic agent. The “Protection Ratio” is the number of viable cells following treatment with (E)-4-fluorostyryl-4-chlorobenzylsulfone and cytotoxic agent, divided by the number of viable cells remaining after treatment with cytotoxic agent alone. A protection ratio of 2 or more is considered highly significant, while is protection ratio of 1.5-2 is considered less significant.

In assay [5] the test system is HFL-1 cells. Description: Protection of normal human fibroblasts from vincristine cytotoxicity. Type of assay: cell-based. The conditions noted are these: 2.0 μM sulfone 24 hours before vincristine, viability 96 hours after vincristine. The method, then: Normal HFL cells were treated with 0 to 0.250 nM vincristine and 2.0 μM (E)-4-fluorostyryl-4-chlorobenzylsulfone as indicated. Cell viability was assessed 96 hours after vincristine was added. “V”, vincristine alone; “A→V”, styryl sulfone followed by vincristine 24 hours later; “A+V”, simultaneous styryl sulfone and vincristine treatment; “V→A”, vincristine followed by styryl sulfone 24 hours later.
HFL-1 cells were treated with […] vincristine and, optionally, 2.0 μM (E)-4-fluorostyryl-4-chlorobenzylsulfone either 24 hours before or after vincristine treatment, or simultaneously with vincristine treatment. Cell viability was assessed 96 hours after the addition of vincristine. The results are shown in FIG. 4: “V”, vincristine alone; “A→V”, styryl sulfone followed by vincristine 24 hours later; “A+V”, simultaneous styryl sulfone and vincristine treatment; “V→A”, vincristine followed by styryl sulfone 24 hours later.

Assay [6] has as its system ICR female mice. The experiment in a line: Protection of mice from paclitaxel toxicity (mortality). The conditions noted are these: 50 mg/Kg i.p. pre-treatment before 150 mg/kg paclitaxel i.p.; mortality at 48 and 144 hours. It counts as in vivo. The method, then: The styryl sulfone was given 24 hours before paclitaxel, 4 hours before paclitaxel, or simultaneously with paclitaxel. Control animals received paclitaxel alone or styryl sulfone alone. Mortality was assessed 48 after paclitaxel injection.
FIG. 6 is similar to FIG. 5, except that mortality was assessed 144 hours post paclitaxel administration.
ICR female mice age 10-12 weeks (Taconic) were divided into the following treatment groups and received intraperitoneal injections of 50 mg/Kg (E)-4-fluorostyryl-4-chlorobenzylsulfone dissolved in DMSO and/or 150 mg/kg paclitaxel (Taxol, Sigma Chemical Co.) dissolved in DMSO. The styryl sulfone was given 24 hours before paclitaxel, 4 hours before paclitaxel, or simultaneously with paclitaxel. Control animals received paclitaxel alone or styryl sulfone alone. Mortality was assessed 48 and 144 hours after paclitaxel injection. The results are shown in FIG. 5 (48 hours post paclitaxel administration) and FIG. 6 (144 hours post paclitaxel administration). Paclitaxel toxicity in mice is abrogated by pre-treatment with (E)-4-fluorostyryl-4-chlorobenzylsulfone.

Entries after “also recorded” stand apart in the source; their conditions may differ.

Turning to `O=C(O)c1ccc(/C=C/S(=O)(=O)Cc2ccc(Cl)cc2)cc1` [Example 10, (E)-4-carboxystyryl-4-chlorobenzyl sulfone], the Cytoprotection entry in assay [1] was “+”.

For `O=S(=O)(/C=C/c1ccc(F)cc1)Cc1ccc(Cl)cc1` [Example 7, (E)-4-fluorostyryl-4-chlorobenzyl sulfone], in assay [2], the “replication rate (cell count)” value is listed as “transiently reduced replication rates”. The “protection from the toxic effects of paclitaxel” value in assay [3] is reported as “conferred protection from the toxic effects of paclitaxel”. Further, in assay [4], the “Protection Ratio” value was 1.3. The “protection from the toxic effects of vincristine” value in assay [5] is “conferred protection from the toxic effects of vincristine; also recorded: Vincristine toxicity is abrogated”. The “paclitaxel toxicity in mice (mortality)” value in assay [6] is on record as “abrogated”. In assay [1], the Cytoprotection entry was “+”.

As to `O=S(=O)(/C=C/c1ccc(Cl)cc1)Cc1ccc(Cl)cc1` [Example 8, (E)-4-chlorostyryl-4-chlorobenzyl sulfone], the Cytoprotection result in assay [1] was “+”.

As to `O=S(=O)(/C=C/c1ccc(F)cc1Cl)Cc1ccc(Cl)cc1` [Example 9, (E)-2-chloro-4-fluorostyryl-4-chlorobenzyl sulfone], the Cytoprotection result in assay [1] is given as “+”.

In the case of `O=S(=O)(/C=C/c1ccc(F)cc1)Cc1ccc(Cl)cc1Cl` [Example 11, (E)-4-fluorostyryl-2,4-dichlorobenzyl sulfone], the Cytoprotection entry in assay [1] is “+”.

For the origin of these results see patent US6656973B2, “(E)-4-carboxystyrl-4-chlorobenzyl sulfone and pharmaceutical compositions thereof” (Temple University - Of the Commonwealth System of Higher …, priority 1999, dated 2003).
